Reference: patent publication US20090124587A1, “METHODS FOR TREATING CANCER USING 17alpha-HYDROXYLASE/C17,20-LYASE INHIBITORS” (priority 2007, published 2009)
Where two headings read alike, the source gives them in different places.

Test: Food effect PK study, two single oral 1000 mg doses of abiraterone acetate, fed (high fat) vs fasted
Type: in vivo, human
Settings: for clearance: read-out: Cl F obs (converted); for Vd/F: read-out: Vz F obs; for concentration at 1.017 h: sample time 1.017; for concentration at 6 h: sample time 6.000; for concentration at 2 h: sample time 2.000; for concentration at 4 h: sample time 4.000; for concentration at 8.033 h: sample time 8.033; for concentration at 24 h: sample time 24.000; for concentration at 48.083 h: sample time 48.083
Method: To measure the amount of abiraterone and abiraterone acetate in the samples, these compounds were extracted from 100 uL human plasma using solid phase extraction (SPE) with cation mixed-mode polymer cartridges. Extracts were evaporated to dryness before reconstitution and analysis. Chromatography was carried out using a Luna™ C5 column (5 μm, 50 mm×2.1 mm id) with a gradient mobile phase consisting of 10 mM ammonium acetate and 2% propan-2-ol in acetonitrile. The flow rate was 0.2 mL/min and the run time 10.5 minutes. Abiraterone and abiraterone acetate were ionized using the electrospray interface in positive ion mode. Detection of analytes was via tandem mass spectrometry (MS/MS) in the multiple reaction monitoring (MRM) mode.
PK modeling was conducted using a non-compartmental model, extra vascular input for plasma with WinNonLin Software®. Pharmacokinetic parameters estimated in the model include:
Based on the above results, the PK parameters for a single dose of 1000 mg/day of abiraterone acetate were further studied in the 3 subjects who were administered the 1000 mg/day dose and in 3 additional subjects. Two single oral doses (1000 mg) of abiraterone acetate were administered separately, one concomitantly with food of high fat content and one in fasting state. The first single dose was administered on day −9 with PK blood samples being taken at 1, 2, 4, 6, 8, 24, 48 and 72 hours post dose. The second single dose was administered on day −3 with PK blood samples being taken at 1, 2, 4, 6, 8, 24 and 48 hours post dose for analysis.

[1] = human, plasma, oral, 1000 mg, Patient 19, 1000 mg, Fasted
[2] = human, plasma, oral, 1000 mg, Patient 19, 1000 mg, Fed
[3] = human, plasma, oral, 1000 mg, Patient 19, Fasted
[4] = human, plasma, oral, 1000 mg, Patient 19, Fed
[5] = human, plasma, oral, 1000 mg, Patient 20, 1000 mg, Fasted
[6] = human, plasma, oral, 1000 mg, Patient 20, 1000 mg, Fed
[7] = human, plasma, oral, 1000 mg, Patient 20, Fasted
[8] = human, plasma, oral, 1000 mg, Patient 20, Fed
[9] = human, plasma, oral, 1000 mg, Patient 21, 1000 mg, Fasted
[10] = human, plasma, oral, 1000 mg, Patient 21, 1000 mg, Fed
[11] = human, plasma, oral, 1000 mg, Patient 21, Fasted
[12] = human, plasma, oral, 1000 mg, Patient 21, Fed
[13] = human, plasma, po, 1000 mg, mean, 1000 mg single oral dose, Fasted
[14] = human, plasma, po, 1000 mg, mean, 1000 mg single oral dose, Fed
[15] = mean, 1000 mg single oral dose, Fasted
[16] = mean, 1000 mg single oral dose, Fed

concentration at 4.033 hr (human, plasma, oral, 1000 mg, Patient 15, Fed, sample time 4.033 hr): 484 nM
concentration at 6.083 hr (human, plasma, oral, 1000 mg, Patient 15, Fed, sample time 6.083 hr): 1120 nM
concentration at 8.067 hr (human, plasma, oral, 1000 mg, Patient 15, Fed, sample time 8.067 hr): 512 nM
concentration at 24.05 hr (human, plasma, oral, 1000 mg, Patient 15, Fed, sample time 24.050 hr): 84.3 nM
concentration at 46.05 hr (human, plasma, oral, 1000 mg, Patient 15, Fed, sample time 46.050 hr): 18.1 nM
clearance [1]: 12200 mL/min
Vd/F [1]: 8490 L
clearance [2]: 4900 mL/min
Vd/F [2]: 4250 L
AUC(0-inf) [3]: 3.91 µM·h
AUC(0-t) [3]: 3.8 µM·h
Cmax [3]: 432 nM
Tmax [3]: 6 h
concentration at 1.05 hr (human, plasma, oral, 1000 mg, Patient 19, Fasted, sample time 1.050 hr): 0 nM
concentration at 2.083 hr (human, plasma, oral, 1000 mg, Patient 19, Fasted, sample time 2.083 hr): 71.9 nM
concentration at 4.017 hr (human, plasma, oral, 1000 mg, Patient 19, Fasted, sample time 4.017 hr): 334 nM
concentration at 6 hr (human, plasma, oral, 1000 mg, Patient 19, Fasted, sample time 6.000 hr): 432 nM
concentration at 8.017 hr (human, plasma, oral, 1000 mg, Patient 19, Fasted, sample time 8.017 hr): 177 nM
concentration at 24.067 hr (human, plasma, oral, 1000 mg, Patient 19, Fasted, sample time 24.067 hr): 21.6 nM
concentration at 48.1 hr (human, plasma, oral, 1000 mg, Patient 19, Fasted, sample time 48.100 hr): 9.1 nM
AUC(0-inf) [4]: 9.73 µM·h
AUC(0-t) [4]: 9.47 µM·h
Cmax [4]: 1020 nM
Tmax [4]: 6.13 h
concentration at 0.967 hr (human, plasma, oral, 1000 mg, Patient 19, Fed, sample time 0.967 hr): 0 nM
concentration at 2.2 hr (human, plasma, oral, 1000 mg, Patient 19, Fed, sample time 2.200 hr): 466 nM
concentration at 3.933 hr (human, plasma, oral, 1000 mg, Patient 19, Fed, sample time 3.933 hr): 973 nM
concentration at 6.133 hr (human, plasma, oral, 1000 mg, Patient 19, Fed, sample time 6.133 hr): 1020 nM
concentration at 8 hr (human, plasma, oral, 1000 mg, Patient 19, Fed, sample time 8.000 hr): 344 nM
concentration at 23.717 hr (human, plasma, oral, 1000 mg, Patient 19, Fed, sample time 23.717 hr): 63.6 nM
concentration at 49.3 hr (human, plasma, oral, 1000 mg, Patient 19, Fed, sample time 49.300 hr): 18 nM
clearance [5]: 3680 mL/min
Vd/F [5]: 4880 L
clearance [6]: 2030 mL/min
Vd/F [6]: 3210 L
AUC(0-inf) [7]: 13 µM·h
AUC(0-t) [7]: 12.1 µM·h
Cmax [7]: 1700 nM
Tmax [7]: 2.27 h
concentration at 1.017 h [7]: 58.5 nM
concentration at 2.267 h (human, plasma, oral, 1000 mg, Patient 20, Fasted, sample time 2.267): 1700 nM
concentration at 3.833 h (human, plasma, oral, 1000 mg, Patient 20, Fasted, sample time 3.833): 1270 nM
concentration at 6 h [7]: 976 nM
concentration at 7.917 h (human, plasma, oral, 1000 mg, Patient 20, Fasted, sample time 7.917): 256 nM
concentration at 24.283 h (human, plasma, oral, 1000 mg, Patient 20, Fasted, sample time 24.283): 118 nM
concentration at 48.417 h (human, plasma, oral, 1000 mg, Patient 20, Fasted, sample time 48.417): 40.8 nM
AUC(0-inf) [8]: 23.5 µM·h
AUC(0-t) [8]: 22.8 µM·h
Cmax [8]: 1580 nM
Tmax [8]: 8.03 h
concentration at 1.017 h [8]: 32.2 nM
concentration at 2 h [8]: 201 nM
concentration at 4 h [8]: 422 nM
concentration at 6 h [8]: 1400 nM
concentration at 8.033 h [8]: 1580 nM
concentration at 24 h [8]: 152 nM
concentration at 47.517 h (human, plasma, oral, 1000 mg, Patient 20, Fed, sample time 47.517): 55.4 nM
concentration at 71.333 h (human, plasma, oral, 1000 mg, Patient 20, Fed, sample time 71.333): 25.3 nM
clearance [9]: 6610 mL/min
Vd/F [9]: 7190 L
clearance [10]: 6180 mL/min
Vd/F [10]: 5180 L
AUC(0-inf) [11]: 7.21 µM·h
AUC(0-t) [11]: 6.93 µM·h
Cmax [11]: 648 nM
Tmax [11]: 2.17 h
concentration at 1 h (human, plasma, oral, 1000 mg, Patient 21, Fasted, sample time 1.000): 414 nM
concentration at 2.167 h (human, plasma, oral, 1000 mg, Patient 21, Fasted, sample time 2.167): 648 nM
concentration at 4.15 h (human, plasma, oral, 1000 mg, Patient 21, Fasted, sample time 4.150): 360 nM
concentration at 6.117 h (human, plasma, oral, 1000 mg, Patient 21, Fasted, sample time 6.117): 396 nM
concentration at 8.05 h (human, plasma, oral, 1000 mg, Patient 21, Fasted, sample time 8.050): 231 nM
concentration at 24.333 h (human, plasma, oral, 1000 mg, Patient 21, Fasted, sample time 24.333): 65.5 nM
concentration at 48.083 h [11]: 16.4 nM
concentration at 71.7 h (human, plasma, oral, 1000 mg, Patient 21, Fasted, sample time 71.700): 15.2 nM
AUC(0-inf) [12]: 7.71 µM·h
AUC(0-t) [12]: 7.45 µM·h
Cmax [12]: 1280 nM
Tmax [12]: 6 h
concentration at 1.167 h (human, plasma, oral, 1000 mg, Patient 21, Fed, sample time 1.167): 17.3 nM
concentration at 2 h [12]: 64.3 nM
concentration at 4 h [12]: 102 nM
concentration at 6 h [12]: 1280 nM
concentration at 8.033 h [12]: 372 nM
concentration at 24 h [12]: 49.3 nM
concentration at 48.083 h [12]: 18.9 nM
AUC(0-inf) [13]: 5.32 µM·h
AUC(0-t) [13]: 5.03 µM·h
Cmax [13]: 659 nM
Tmax [13]: 3.09 h
Vd/F [13]: 10100 L
AUC(0-inf) [14]: 12.4 µM·h
AUC(0-t) [14]: 12.1 µM·h
Cmax [14]: 1400 nM
Tmax [14]: 5.21 h
Vd/F [14]: 3800 L
Cl F obs [15]: 861.6 L/h
HL [15]: 9.9 h
Cl F obs [16]: 260.2 L/h
HL [16]: 10.9 h
effect of food on drug levels (patient 21): negligible
difference in mean drug levels between the dosing regimes (fed vs fasted) (previously (before extended cohort)): up to a four fold difference
SMILES: C[C@]12CC[C@H](O)CC1=CC[C@@H]1[C@@H]2CC[C@]2(C)C(c3cccnc3)=CC[C@@H]12 [Abiraterone]
